# Test results published in patent US12492163B2, “9H-fluorene derivatives or their pharmaceutically acceptable salts” (priority 2020, dated 2025).
# Assays:
# mGAT1 = mGAT1 (Mus musculus (Mouse), UniProt P31648); assay: [3H]GABA uptake inhibition, mGAT1 in HEK293 cells; format: cell-based; conditions: for percentage of [3H]GABA reuptake retained, mGAT1: inhibitor at 100 μM, remaining reuptake
# Method: (§1) Exemplary compounds according to the invention were screened at the Ludwig-Maximilian University of Munich to determine the inhibitory ability towards four mouse GAT transporters (mGAT1-mGAT4). […] The biological material was stably transfected human embryonic kidney HEK293 cells, expressing genes to the appropriate transporters. The generated radioactivity was measured with a liquid scintillation counter. […] These determinations were made according to the procedure described in detail in A. Kragler, G. Höfner, K. T. Wanner, Novel parent structures for inhibitors of the murine GABA transporters mGAT3 and mGAT4, Eur. J. Pharmacol. 519 (2005) 43-47.
# [1] = target: horse plasma butyrylcholinesterase (eqBuChE) (Equus caballus (Horse), UniProt P81908); assay: Ellman's test, inhibition of horse plasma butyrylcholinesterase; format: biochemical; conditions: for inhibition at 10 µM: 10 μM inhibitor concentration, read-out: eqBuChE percent inhibition of enzyme
# Sequence of horse plasma butyrylcholinesterase (eqBuChE) (P81908 whole entry): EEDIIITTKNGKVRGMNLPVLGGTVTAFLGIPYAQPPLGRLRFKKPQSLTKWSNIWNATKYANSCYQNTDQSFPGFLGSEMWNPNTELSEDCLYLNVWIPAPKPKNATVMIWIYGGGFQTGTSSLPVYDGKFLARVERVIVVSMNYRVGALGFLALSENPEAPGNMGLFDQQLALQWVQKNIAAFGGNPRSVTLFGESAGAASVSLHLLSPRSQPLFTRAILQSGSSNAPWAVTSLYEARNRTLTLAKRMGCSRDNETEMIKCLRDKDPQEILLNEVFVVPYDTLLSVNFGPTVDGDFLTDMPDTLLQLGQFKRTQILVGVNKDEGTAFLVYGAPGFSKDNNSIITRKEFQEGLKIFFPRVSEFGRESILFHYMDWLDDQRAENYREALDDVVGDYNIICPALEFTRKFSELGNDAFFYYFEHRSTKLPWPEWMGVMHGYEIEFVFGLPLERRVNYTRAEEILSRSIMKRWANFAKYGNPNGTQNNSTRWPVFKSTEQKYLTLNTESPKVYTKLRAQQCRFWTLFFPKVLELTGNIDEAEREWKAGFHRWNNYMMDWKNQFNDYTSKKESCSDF
# Method: (§2) The spectrophotometric Ellman's test [Ellman et al.] modified for assays in 96-well plates was used to test the activity. Reagents: 5,5′-dithiobis-(2-nitrobenzoic acid) (DTNB), eqBuChE and butyrylthiocholine iodide (BTC) were purchased from Sigma-Aldrich (Steinheim, Germany). hBuChE was from Vivonics (Bedford, MA, USA). The enzymes were prepared by dissolving in demineralized water to a concentration of 0.384 U/ml. Stock solutions of test compounds were prepared by dissolving in DMSO to a concentration of 0.0034 M. They were then diluted with water to obtain the appropriate concentrations in the wells. In the first step of the test, 25 μl of test compound (or DMSO/water mixture at the appropriate ratio for blank samples) was incubated in 0.1 M phosphate buffer (200 μl, pH=8.0) with DTNB (20 μl; 0.0025M) and with the appropriate enzyme (20 μl; eqBuChE or hBuChE) at 25° C. (animal enzyme) or 36° C. (human enzyme). After a 5 minutes incubation period, 20 μl of BTC solution (0.00375 M) was added. After another 5 minutes, the changes in absorbance of the solutions were measured at 412 nm using a multifunctional microplate reader (EnSpire Multimode; PerkinElmer; Waltham, MA, USA). All compounds were tested at a screening concentration of 10 μM (eqBuChE) or 1 μM (hBuChE). The percentage of enzyme inhibition was calculated from the equation 100-(S/B)×100, where S and B were the enzymatic activity in the test sample well and in the well without sample, respectively. […] All reactions were performed in triplicate. IC50 values were calculated using non-linear regression (GraphPad Prism 5 [GraphPad Software, San Diego, CA, USA 5.00]) for the percentage of enzyme inhibition against the inhibitor concentration used. Tacrine and donepezil were used as reference compounds.
# [2] = target: Recombinant human Aβ1-42 peptide (Homo sapiens (Human), UniProt P05067); assay: Thioflavin T test, antiaggregation activity against beta-amyloid; format: biochemical; conditions: 10 μM test compound, 1.5 μM Aβ1-42; read-out: inh. Aβ aggr. % inh
# Sequence of Recombinant human Aβ1-42 peptide (P05067 672-713): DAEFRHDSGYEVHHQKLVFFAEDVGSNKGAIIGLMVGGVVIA
# Method: The thioflavin T test [Levine III] was used for the determinations. Recombinant human Aβ1-42 peptide (HFIP pretreated, Merck Millipore, Darmstadt, Germany) was dissolved in DMSO to form a 75 μM stock solution. The solution was further diluted in HEPES buffer (150 mM HEPES, pH 7.4, 150 mM NaCl) to a concentration of 7.5 μM. Then, the Aβ1-42 solution was added to the test compounds (black 96-well plates were used) and diluted with thioflavin T solution (10 μM final concentration). The final mixture contained 1.5 μM Aβ1-42, 10 μM test compound, and 3% of DMSO. Fluorescence was measured every 300 s (excitation wavelength was 440 nm, emission wavelength was 490 nm) with continuous mixing between measurements. A multifunction microplate reader (Synergy H4; BioTek Instruments, Inc., Winooski, VT, USA) was used to measure the fluorescence. Fluorescence started increasing after approximately 4 hours, plateaued after 20 hours and remained virtually unchanged for the next 28 hours of incubation. The plateau-phase fluorescence intensities (in the presence and absence of test compounds) were averaged and the mean fluorescence values for the respective wells at t=0 h were subtracted from them. […] IC50 values were calculated using non-linear regression (GraphPad Prism 5 [GraphPad Software, San Diego, CA, USA 5.00]) for the percentage of aggregation inhibition against the inhibitor concentration used.
# mGAT4 = mGAT4 (Mus musculus (Mouse), UniProt P31650); assay: [3H]GABA uptake inhibition, mGAT4 in HEK293 cells; format: cell-based; conditions: for pIC50 (+/−SEM) mGAT4 / IC50: GABA reuptake; for percentage of [3H]GABA reuptake retained, mGAT4: inhibitor at 100 μM, remaining reuptake; for IC50: read-out: pIC50 (+/−SEM) mGAT4 (converted)
# Sequence of mGAT4 (P31650 whole entry): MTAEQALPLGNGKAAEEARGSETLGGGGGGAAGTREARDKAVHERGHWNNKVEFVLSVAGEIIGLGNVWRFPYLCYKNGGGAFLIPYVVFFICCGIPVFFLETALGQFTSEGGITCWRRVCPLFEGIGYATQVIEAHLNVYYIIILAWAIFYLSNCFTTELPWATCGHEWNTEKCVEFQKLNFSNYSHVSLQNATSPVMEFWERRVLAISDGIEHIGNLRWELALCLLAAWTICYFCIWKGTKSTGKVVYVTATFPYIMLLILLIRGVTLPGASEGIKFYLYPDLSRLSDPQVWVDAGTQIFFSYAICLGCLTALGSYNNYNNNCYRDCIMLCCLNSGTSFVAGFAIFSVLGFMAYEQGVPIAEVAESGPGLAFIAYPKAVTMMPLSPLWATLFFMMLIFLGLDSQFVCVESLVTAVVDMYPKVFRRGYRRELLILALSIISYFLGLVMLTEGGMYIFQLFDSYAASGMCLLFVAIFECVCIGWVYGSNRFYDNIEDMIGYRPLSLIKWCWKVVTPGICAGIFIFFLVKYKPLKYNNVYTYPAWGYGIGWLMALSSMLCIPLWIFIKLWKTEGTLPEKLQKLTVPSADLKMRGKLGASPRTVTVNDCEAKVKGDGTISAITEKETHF
# Method: as §1
# mGAT3 = mGAT3 (Mus musculus (Mouse), UniProt P31649); assay: [3H]GABA uptake inhibition, mGAT3 in HEK293 cells; format: cell-based; conditions: for percentage of [3H]GABA reuptake retained, mGAT3: inhibitor at 100 μM, remaining reuptake
# Sequence of mGAT3 (P31649 whole entry): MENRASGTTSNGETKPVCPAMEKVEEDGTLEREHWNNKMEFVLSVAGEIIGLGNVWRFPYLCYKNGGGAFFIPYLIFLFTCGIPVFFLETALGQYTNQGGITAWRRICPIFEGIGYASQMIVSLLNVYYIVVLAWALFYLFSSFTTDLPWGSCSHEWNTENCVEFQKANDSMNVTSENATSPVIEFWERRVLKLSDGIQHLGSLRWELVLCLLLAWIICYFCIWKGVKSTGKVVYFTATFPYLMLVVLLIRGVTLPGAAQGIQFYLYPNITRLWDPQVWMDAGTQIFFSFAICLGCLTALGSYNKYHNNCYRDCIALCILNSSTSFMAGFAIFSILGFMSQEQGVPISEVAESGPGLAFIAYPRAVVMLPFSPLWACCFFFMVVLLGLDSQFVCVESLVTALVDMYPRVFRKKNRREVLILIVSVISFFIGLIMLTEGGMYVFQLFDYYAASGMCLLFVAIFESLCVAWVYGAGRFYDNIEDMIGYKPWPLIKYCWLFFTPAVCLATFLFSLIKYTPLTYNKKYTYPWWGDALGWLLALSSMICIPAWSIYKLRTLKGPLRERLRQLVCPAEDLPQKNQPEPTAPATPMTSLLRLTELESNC
# Method: as §1
# mGAT2 = mGAT2 (Mus musculus (Mouse), UniProt P31651); assay: [3H]GABA uptake inhibition, mGAT2 in HEK293 cells; format: cell-based; conditions: for pIC50 (+/−SEM) mGAT2 / IC50: GABA reuptake; for IC50: read-out: pIC50 (+/−SEM) mGAT2 (converted); for percentage of [3H]GABA reuptake retained, mGAT2: inhibitor at 100 μM, remaining reuptake
# Sequence of mGAT2 (P31651 whole entry): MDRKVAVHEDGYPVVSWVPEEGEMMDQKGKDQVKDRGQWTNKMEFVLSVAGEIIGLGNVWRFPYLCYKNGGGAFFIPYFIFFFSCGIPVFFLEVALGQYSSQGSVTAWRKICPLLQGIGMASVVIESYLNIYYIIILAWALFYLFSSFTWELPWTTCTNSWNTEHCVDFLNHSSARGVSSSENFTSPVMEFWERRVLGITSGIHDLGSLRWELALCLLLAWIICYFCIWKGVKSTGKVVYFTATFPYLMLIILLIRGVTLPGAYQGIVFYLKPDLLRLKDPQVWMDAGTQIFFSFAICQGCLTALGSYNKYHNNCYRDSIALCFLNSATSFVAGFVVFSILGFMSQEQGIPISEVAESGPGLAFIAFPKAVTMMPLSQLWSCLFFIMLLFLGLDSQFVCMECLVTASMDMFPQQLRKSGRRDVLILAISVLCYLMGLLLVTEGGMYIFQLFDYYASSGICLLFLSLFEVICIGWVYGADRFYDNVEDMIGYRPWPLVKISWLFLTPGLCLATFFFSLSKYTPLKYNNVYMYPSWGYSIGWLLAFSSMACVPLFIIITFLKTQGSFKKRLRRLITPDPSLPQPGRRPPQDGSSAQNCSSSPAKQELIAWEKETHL
# Method: as §1
# [3] = target: human plasma butyrylcholinesterase (hBuChE) (Homo sapiens (Human), UniProt P06276); assay: Ellman's test, inhibition of human plasma butyrylcholinesterase; format: biochemical; conditions: for inhibition at 1 µM: 1 μM inhibitor concentration, read-out: hBuChE % inh
# Sequence of human plasma butyrylcholinesterase (hBuChE) (P06276 29-602): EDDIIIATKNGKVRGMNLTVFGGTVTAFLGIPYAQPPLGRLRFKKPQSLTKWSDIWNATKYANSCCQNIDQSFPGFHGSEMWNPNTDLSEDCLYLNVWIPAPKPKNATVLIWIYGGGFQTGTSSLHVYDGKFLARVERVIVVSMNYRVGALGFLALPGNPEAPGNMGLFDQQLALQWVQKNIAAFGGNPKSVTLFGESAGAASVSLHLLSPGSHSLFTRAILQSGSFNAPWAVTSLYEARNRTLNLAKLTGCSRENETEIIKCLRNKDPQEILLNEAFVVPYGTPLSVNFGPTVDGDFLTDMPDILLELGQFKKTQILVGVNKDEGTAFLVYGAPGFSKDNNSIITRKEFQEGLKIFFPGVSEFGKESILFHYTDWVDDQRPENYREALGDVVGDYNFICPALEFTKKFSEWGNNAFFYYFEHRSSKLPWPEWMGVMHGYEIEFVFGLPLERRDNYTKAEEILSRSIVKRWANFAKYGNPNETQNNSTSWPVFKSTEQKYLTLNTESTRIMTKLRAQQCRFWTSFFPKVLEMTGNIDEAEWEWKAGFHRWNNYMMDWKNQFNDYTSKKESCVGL
# Method: as §2
# [4] = target: human recombinant beta-secretase (hBACE1) (Homo sapiens (Human), UniProt P56817); assay: FRET assay, inhibition of human recombinant beta-secretase; format: biochemical; conditions: for IC50: read-out: hBACE-1 IC50; for inhibition at 50 µM: 50 μM inhibitor concentration, read-out: hBACE-1 % inh
# Sequence of human recombinant beta-secretase (hBACE1) (P56817 46-501): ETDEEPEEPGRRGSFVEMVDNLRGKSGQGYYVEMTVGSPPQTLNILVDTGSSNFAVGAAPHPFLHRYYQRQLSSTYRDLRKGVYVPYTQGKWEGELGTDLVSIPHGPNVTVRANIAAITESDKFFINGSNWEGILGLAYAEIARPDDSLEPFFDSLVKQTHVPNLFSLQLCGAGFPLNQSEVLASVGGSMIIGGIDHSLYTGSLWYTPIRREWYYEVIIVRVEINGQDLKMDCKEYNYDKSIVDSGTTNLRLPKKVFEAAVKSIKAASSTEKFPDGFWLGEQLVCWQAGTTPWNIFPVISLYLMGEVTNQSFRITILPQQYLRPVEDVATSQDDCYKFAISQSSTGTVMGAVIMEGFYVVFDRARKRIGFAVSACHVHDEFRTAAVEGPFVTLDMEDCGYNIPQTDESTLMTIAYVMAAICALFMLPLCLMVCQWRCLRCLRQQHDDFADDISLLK
# Method: The FRET assay [Vassar, et al.] was used to test activity using 384-well black plates and a microplate reader (EnSpire Multimode; PerkinElmer; Waltham, MA, USA). The test was purchased from Life Technologies Polska Sp. z o.o. (Warsaw, Poland). […] Stock solutions of test compounds were prepared in DMSO and then further diluted with assay buffer (50 mM sodium acetate; pH 4.5) to the appropriate concentrations in the wells. In the first step of the test, 10 μl of the substrate (Rh-[…] quencher, based on the so-called Swedish APP mutation) was mixed with 10 μl of the test compound (or assay buffer; for blank sample). The enzyme reaction was initiated by adding 10 μl of enzyme (hBACE1, 1 U/ml). The reaction mixture was incubated at 25° C. for 60 minutes, then 10 μL of Stop solution (2.5 M sodium acetate) was added. After stopping the reaction, fluorescence was measured at 576 nm. The percentage of enzyme inhibition was calculated from the formula [1−(S60−S0)/(C60−C0)]×100, where S0 and S60 are the fluorescence of the test sample (containing the enzyme, substrate and test compound) at the start of the reaction and after 60 minutes, respectively, whereas C0 and C60 were analogous fluorescence intensities in the blank samples (containing enzyme, substrate and buffer). All test compounds were tested at a concentration of 50 μM in triplicate. […] A BACE1 IV inhibitor (Calbiochem, Merck; Nottingham, UK) [Stachel et al.] was used as a reference compound. […] IC50 values for all test compounds were calculated using non-linear regression (GraphPad Prism 5 [GraphPad Software, San Diego, CA, USA 5.00]) for the percentage of enzyme inhibition against the inhibitor concentration used.
SMILES,pIC50 (+/−SEM) mGAT1 (mGAT1; GABA reuptake),IC50 [1],inhibition at 10 µM [2],pIC50 (+/−SEM) mGAT4 (mGAT4),pIC50 (+/−SEM) mGAT3 (mGAT3; GABA reuptake),pIC50 (+/−SEM) mGAT2 (mGAT2),IC50 [3],IC50 [4],inhibition at 10 µM [1],"percentage of [3H]GABA reuptake retained, mGAT4 (mGAT4)",inhibition at 1 µM [3],"percentage of [3H]GABA reuptake retained, mGAT3 (mGAT3)","percentage of [3H]GABA reuptake retained, mGAT1 (mGAT1)",IC50 (mGAT4),IC50 (mGAT2),"percentage of [3H]GABA reuptake retained, mGAT2 (mGAT2)",inhibition at 50 µM [4],"IC50 (mGAT1; GABA reuptake, read-out: pIC50 (+/−SEM) mGAT1 (converted))","IC50 (mGAT3; GABA reuptake, read-out: pIC50 (+/−SEM) mGAT3 (converted))"
"O[C@H](CNCc1ccccc1)[C@H](Cc1ccccc1)NC1c2ccccc2-c2ccccc21 [Compound 1, (2R,3S)-3-((9H-fluoren-9-yl)amino)-1-(benzylamino)-4-phenylbutan-2-ol]",4.96,0.627 µM,82.5%,5.11 +/− 0.01,5.15+/− 0.07,5.01 +/− 0.08,0.196 µM,10.1 µM,,,,,,,,,,,
"CC(C)(C)c1cccc(CNC[C@@H](O)[C@H](Cc2ccccc2)NC2c3ccccc3-c3ccccc32)c1 [Compound 3, (2R,3S)-3-((9H-fluoren-9-yl)amino)-1-((3-(tert-butyl)benzyl)amino)-4-phenylbutan-2-ol]",4.83,,90.9%,,5.05 +/− 0.05,4.58,,6.35 µM,78.2%,56%,68%,,,,,,,,
"COc1cccc(CNC[C@H](O)[C@H](Cc2ccccc2)NC2c3ccccc3-c3ccccc32)c1 [Compound 6, (2S,3S)-3-((9H-fluoren-9-yl)amino)-1-((3-methoxybenzyl)amino)-4-phenylbutan-2-ol]",5.15,2.2 µM,93.3%,5.15 +/− 0.034,,4.92 +/− 0.14,,2.25 µM,,,67.7%,66%,,,,,,,
"COc1ccccc1CNC[C@H](O)[C@H](Cc1ccccc1)NC1c2ccccc2-c2ccccc21 [Compound 7, (2S,3S)-3-((9H-fluoren-9-yl)amino)-1-((2-methoxybenzyl)amino)-4-phenylbutan-2-ol]",5.20,0.278 µM,86.7%,5.21 +/− 0.04,,4.88 +/− 0.07,0.268 µM,7.23 µM,,,,65%,,,,,,,
"O[C@@H](CNCC1CCCCC1)[C@H](Cc1ccccc1)NC1c2ccccc2-c2ccccc21 [Compound 11, (2S,3S)-3-((9H-fluoren-9-yl)amino)-1-((cyclohexylmethyl)amino)-4-phenylbutan-2-ol]",,0.955 µM,78.6%,,4.94,4.97,,8.6 µM,,59%,76.5%,,54%,,,,,,
"O=C(CC1c2ccccc2-c2ccccc21)N[C@@H](Cc1ccccc1)[C@@H](O)CNCc1ccccc1 [Compound 17, N-((2S,3S)-4-(benzylamino)-3-hydroxy-1-phenylbutan-2-yl)-2-(9H-fluorene-9-yl)acetamide]",4.85,1.76 µM,42.5%,,4.93,,,11.5 µM,,,66.4%,,,7.24 µM,15.8 µM,,,,
"CC(C)(C)c1ccc(CNC[C@H](O)[C@H](Cc2ccccc2)NC(=O)CC2c3ccccc3-c3ccccc32)cc1 [Compound 19, N-((2S,3S)-4-((4-(tert-butyl)benzyl)amino)-3-hydroxy-1-phenylbutan-2-yl)-2-(9H-fluoren-9-yl)acetamide]",4.90,3.02 µM,86.7%,,4.90,,,,,,77.1%,,,15.5 µM,,114%,78.3%,,
"COc1ccccc1CNC[C@H](O)[C@H](Cc1ccccc1)NC(=O)CC1c2ccccc2-c2ccccc21 [Compound 20, 2-(9H-fluorene-9-yl)-N-((2S,3S)-3-hydroxy-4-((2-methoxybenzyl)amino)-1-phenylbutan-2-yl)acetamide]",,2.2 µM,< 10%,,,,,,,,74.5%,,,4.07 µM,9.12 µM,,71.1%,9.55 µM,8.32 µM
"C[C@H](NC[C@@H](O)[C@H](Cc1ccccc1)NC(=O)C1c2ccccc2-c2ccccc21)c1ccccc1 [Compound 22, N-((2S,3R)-3-hydroxy-1-phenyl-4-(((S)-1-phenylethyl)amino)butan-2-yl)-9H-fluorene-9-carboxamide]",,,< 10%,,,,,,42%,69%,< 10%,90%,83%,,,97%,72.6%,,
"C[C@H](NC[C@@H](O)[C@H](Cc1ccccc1)NC(=O)CC1c2ccccc2-c2ccccc21)c1ccccc1 [Compound 23, 2-(9H-fluoren-9-yl)-N-((2S,3R)-3-hydroxy-1-phenyl-4-(((S)-1-phenylethyl)amino)butan-2-yl)acetamide]",4.73,8.86 µM,59.4%,,,,0.558 µM,7.36 µM,,61%,,59%,,,14.5 µM,,,,
